Laboratory results: US20230219904A1 (SYNGENTA CROP PROTECTION AG, priority 2020, published 2023)

Tests used:
Type in all cases: in vivo
Conditions in all cases: evaluated after 13 days
[1] = system: Abutilon theophrasti (ABUTH); test: Pre-emergence herbicidal glasshouse test (Table B1)
In short: (§1)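 Application rate was 500 g/h unless otherwise indicated, as a spray prepared from acetone/water (50:50) containing 0.5% Tween 20. Treatment followed one day (pre-emergence) or 8 days (post-emergence) of glasshouse growth, and percentage plant damage was assessed 13 days later on a 1–5 scale.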

[2] = system: Amaranthus retoflexus (AMARE); test: as above
In short: as §1

[3] = system: Ipomoea hederacea (IPOHE); test: as above
In short: as §1

Setaria faberi (SETFA) [4] = test: as above
In short: as §1

[5] = system: Echinochloa crus-galh (ECHCG); test: as above
In short: as §1

[6] = system: Abutilon theophrasti (ABUTH); test: Post-emergence herbicidal glasshouse test (Table B1)
In short: as §1

[7] = system: Amaranthus retoflexus (AMARE); test: as above
In short: as §1

[8] = system: Ipomoea hederacea (IPOHE); test: as above
In short: as §1

Setaria faberi (SETFA) [9] = test: as above
In short: as §1

[10] = system: Echinochloa crus-galh (ECHCG); test: as above
In short: as §1

Row | Compound | PRE Application ABUTH, percentage damage on five-point scale ([1]; applied at 500 g/h) | PRE Application AMARE, percentage damage on five-point scale ([2]; applied at 500 g/h) | PRE Application IPOHE, percentage damage on five-point scale ([3]; applied) | PRE Application SETFA, percentage damage on five-point scale (Setaria faberi (SETFA) [4]; applied at 500 g/h) | PRE Application ECHCG, percentage damage on five-point scale ([5]; applied at 500 g/h) | POST Application ABUTH, percentage damage on five-point scale ([6]; applied at 500 g/h) | POST Application AMARE, percentage damage on five-point scale ([7]; applied at 500 g/h) | POST Application IPOHE, percentage damage on five-point scale ([8]; applied at 500 g/h) | POST Application SETFA, percentage damage on five-point scale (Setaria faberi (SETFA) [9]; applied at 500 g/h) | POST Application ECHCG, percentage damage on five-point scale ([10]; applied at 500 g/h) | PRE Application ABUTH, percentage damage on five-point scale ([1]; applied at 125 g/ha) | PRE Application AMARE, percentage damage on five-point scale ([2]; applied at 125 g/ha) | PRE Application IPOHE, percentage damage on five-point scale ([3]; applied at 125 g/ha) | PRE Application ECHCG, percentage damage on five-point scale ([5]; applied at 125 g/ha) | POST Application ABUTH, percentage damage on five-point scale ([6]; applied at 125 g/ha) | POST Application AMARE, percentage damage on five-point scale ([7]; applied at 125 g/ha) | POST Application IPOHE, percentage damage on five-point scale ([8]; applied at 125 g/ha) | POST Application SETFA, percentage damage on five-point scale (Setaria faberi (SETFA) [9]; applied at 125 g/ha) | POST Application ECHCG, percentage damage on five-point scale ([10]; applied at 125 g/ha) | PRE Application SETFA, percentage damage on five-point scale (Setaria faberi (SETFA) [4]; applied at 125 g/ha)
1 | COCCC(=O)Nc1c(OC(F)(F)F)ccc(C(=O)Nc2nnnn2C)c1Cl [Compound 1.120] | 4 (4=60-79%) | 5 (5=80-100%) | 1 (1=0-19%) | 1 (1=0-19%) | 5 (5=80-100%) | 5 (5=80-100%) | 5 (5=80-100%) | 5 (5=80-100%) | 5 (5=80-100%) | 5 (5=80-100%) | – | – | – | – | – | – | – | – | – | –
2 | CC(=O)N(C)c1c(OC(F)(F)F)ccc(C(=O)Nc2nnnn2C)c1Cl [Compound 1.003] | 5 (5=80-100%) | 5 (5=80-100%) | 1 (1=0-19%) | 5 (5=80-100%) | 5 (5=80-100%) | 5 (5=80-100%) | 5 (5=80-100%) | 5 (5=80-100%) | – | 5 (5=80-100%) | – | – | – | – | – | – | – | – | – | –
3 | CCn1nnnc1NC(=O)c1ccc(OC(F)(F)F)c(NC(=O)C(C)(C)C)c1Cl [Compound 1.106] | 5 (5=80-100%) | 5 (5=80-100%) | – | 5 (5=80-100%) | 5 (5=80-100%) | 5 (5=80-100%) | 5 (5=80-100%) | 5 (5=80-100%) | 5 (5=80-100%) | 5 (5=80-100%) | – | – | – | – | – | – | – | – | – | –
4 | CCC(C)C(=O)Nc1c(OC(F)(F)F)ccc(C(=O)Nc2nnnn2C)c1Cl (stereo not shown) [Compound 1.055] | – | – | – | – | – | – | – | – | – | – | 5 (5=80-100%) | 5 (5=80-100%) | 4 (4=60-79%) | 5 (5=80-100%) | 5 (5=80-100%) | 5 (5=80-100%) | 4 (4=60-79%) | 5 (5=80-100%) | 5 (5=80-100%) | –
5 | Cn1nnnc1NC(=O)c1ccc(OC(F)F)c(NC(=O)c2cccc(Cl)n2)c1Cl [Compound 1.083] | – | – | – | – | – | – | – | – | – | – | 5 (5=80-100%) | 5 (5=80-100%) | 3 (3=40-59%) | – | 4 (4=60-79%) | 4 (4=60-79%) | 4 (4=60-79%) | 4 (4=60-79%) | 2 (2=20-39%) | 4 (4=60-79%)
6 | Cc1ncc(C(=O)Nc2c(OC(F)(F)F)ccc(C(=O)Nc3nnnn3C)c2Cl)s1 [Compound 1.010] | 5 (5=80-100%) | 5 (5=80-100%) | 2 (2=20-39%) | 2 (2=20-39%) | 1 (1=0-19%) | 5 (5=80-100%) | – | 5 (5=80-100%) | 5 (5=80-100%) | 5 (5=80-100%) | – | – | – | – | – | – | – | – | – | –
